Results taken from ChEMBL document CHEMBL5500400, “Design and Discovery of a Potent and Selective Inhibitor of Integrin αvβ1” (J Med Chem, 2024).

Key:
[1] = target: T1, Integrin alpha-V/beta-1 (Homo sapiens, UniProt P05556+P06756); assay: Inhibition of recombinant human Integrin alphaVbeta1 using TMB as substrate incubated for 2 hrs in presence of fibronectin by ELISA; assay type: protein-complex assay
[2] = target: T2, Integrin alpha-V/beta-3 (Homo sapiens, UniProt P05106+P06756); assay: Inhibition of recombinant human Integrin alphaVbeta3 using TMB as substrate incubated for 2 hrs in presence of vitronectin by ELISA; assay type: protein-complex assay
[3] = target: Integrin alpha-V/beta-5 (Homo sapiens, UniProt P06756+P18084); assay: Inhibition of recombinant human Integrin alphaVbeta5 using TMB as substrate incubated for 2 hrs in presence of fibronectin by ELISA; assay type: protein-complex assay
[4] = target: T3, Integrin alpha-V/beta-6 (Homo sapiens, UniProt P06756+P18564); assay: Inhibition of recombinant human Integrin alphaVbeta6 using TMB as substrate incubated for 2 hrs in presence of LAP by ELISA; assay type: protein-complex assay
[5] = target: T4, Integrin alpha-V/beta-8 (Homo sapiens, UniProt P06756+P26012); assay: Inhibition of recombinant human Integrin alphaVbeta8 using TMB as substrate incubated for 2 hrs in presence of LAP by ELISA; assay type: protein-complex assay
[6] = target: T5, Integrin alpha-5/beta-1 (Homo sapiens, UniProt P05556+P08648); assay: Inhibition of recombinant human Integrin alpha5beta1 using TMB as substrate incubated for 2 hrs in presence of fibronectin by ELISA; assay type: protein-complex assay
[7] = target: T6, Integrin alpha-4/beta-1 (Homo sapiens, UniProt P05556+P13612); assay: Inhibition of recombinant human Integrin alpha4beta1 using TMB as substrate incubated for 2 hrs in presence of VCAM-1 by ELISA; assay type: protein-complex assay
[8] = target: T1, Integrin alpha-V/beta-1; assay: Inhibition of recombinant human Integrin alphaVbeta1 mediated cellular adhesion expressed in CHO-B2 cell incubated for 24 hrs in presence of Ca2+ and Mg2+ by real-time cell analysis; assay type: cell-based
[9] = target: T6, Integrin alpha-4/beta-1; assay: Inhibition of Integrin alpha4beta1 mediated cellular adhesion in human Jurkat cells incubated for 24 hrs in presence of Ca2+ and Mg2+ by real-time cell analysis; assay type: cell-based
[10] = target: T5, Integrin alpha-5/beta-1; assay: Inhibition of Integrin alpha5beta1 mediated cellular adhesion in human HCT-116 cells incubated for 24 hrs in presence of Ca2+ and Mg2+ by real-time cell analysis; assay type: cell-based
[11] = target: Integrin alpha-8/beta-1 (Homo sapiens, UniProt P05556+P53708); assay: Inhibition of recombinant human Integrin alpha8beta1 mediated cellular adhesion expressed in HEK cells incubated for 24 hrs in presence of Ca2+ and Mg2+ by real-time cell analysis; assay type: cell-based
[12] = target: T2, Integrin alpha-V/beta-3; assay: Inhibition of recombinant human Integrin alphaVbeta3 mediated cellular adhesion expressed in HEK cells incubated for 24 hrs in presence of Ca2+ and Mg2+ by real-time cell analysis; assay type: cell-based
[13] = target: T1, Integrin alpha-V/beta-1; assay: Inhibition of human Integrin alphaVbeta1 expressed in CHO-B2 cell cocultured with TGF-beta expressing Mv1Lu cells assessed as inhibition of integrin alphaVbeta1 mediated TGF-beta transactivation by luciferase assay; assay type: cell-based
[14] = target: T3, Integrin alpha-V/beta-6; assay: Inhibition of human Integrin alphaVbeta6 expressed in SW480 cells cocultured with TGF-beta expressing Mv1Lu cells assessed as inhibition of integrin alphaVbeta6 mediated TGF-beta transactivation by luciferase assay; assay type: cell-based
[15] = target: T4, Integrin alpha-V/beta-8; assay: Inhibition of Integrin alphaVbeta8 in human SNB-19 cells cocultured with TGF-beta expressing Mv1Lu cells assessed as inhibition of integrin alphaVbeta8 mediated TGF-beta transactivation by luciferase assay; assay type: cell-based
[16] = Apparent permeability across apical to basolateral side in dog MDCK-MDR1 cells incubated for 60 mins by HPLC analysis; assay type: ADME, cell-based, Canis lupus familiaris
[17] = Apparent permeability across basolateral to apical side in dog MDCK-MDR1 cells incubated for 60 mins by HPLC analysis; assay type: ADME, cell-based, Canis lupus familiaris
[18] = Half life in Wistar-Han rat at 1 mg/kg,iv administration; assay type: ADME, organism-based; conditions: in vivo
[19] = Clearance in Wistar-Han rat at 1 mg/kg,iv administration; assay type: ADME, organism-based; conditions: in vivo
[20] = AUC (0 to 24 hrs) in Wistar-Han rat at 1 mg/kg,iv administration; assay type: ADME, organism-based; conditions: in vivo
[21] = AUC (0 to infinity) in Wistar-Han rat at 1 mg/kg,iv administration; assay type: ADME, organism-based; conditions: in vivo
[22] = Volume of distribution at steady state in Wistar-Han rat at 1 mg/kg,iv administration; assay type: ADME, organism-based; conditions: in vivo, read-out: Vdss
[23] = Half life in Sprague-Dawley rat at 30 mg/kg,sc administration; assay type: ADME, organism-based; conditions: in vivo
[24] = Tmax in Sprague-Dawley rat at 30 mg/kg,sc administration; assay type: ADME, organism-based; conditions: in vivo
[25] = Cmax in Sprague-Dawley rat at 30 mg/kg,sc administration; assay type: ADME, organism-based; conditions: in vivo
[26] = AUC (0 to 24 hrs) in Sprague-Dawley rat at 30 mg/kg,sc administration; assay type: ADME, organism-based; conditions: in vivo
[27] = AUC (0 to infinity) in Sprague-Dawley rat at 30 mg/kg,sc administration; assay type: ADME, organism-based; conditions: in vivo
[28] = Bioavailability in Sprague-Dawley rat at 30 mg/kg,sc administration; assay type: ADME, organism-based; conditions: in vivo
[29] = Half life in Wistar rat at 10 mg/kg,po administration; assay type: ADME, organism-based; conditions: in vivo
[30] = Tmax in Wistar rat at 10 mg/kg,po administration; assay type: ADME, organism-based; conditions: in vivo
[31] = Cmax in Wistar rat at 10 mg/kg,po administration; assay type: ADME, organism-based; conditions: in vivo
[32] = AUC (0 to 24 hrs) in Wistar rat at 10 mg/kg,po administration; assay type: ADME, organism-based; conditions: in vivo
[33] = AUC (0 to infinity) in Wistar rat at 10 mg/kg,po administration; assay type: ADME, organism-based; conditions: in vivo
[34] = Oral bioavailability in Wistar rat at 10 mg/kg administration; assay type: ADME, organism-based; conditions: in vivo
[35] = test system: Rattus norvegicus; assay: Antifibrotic activity against choline-deficient high-fat diet induced Wistar-Han rat liver fibrosis model assessed as reduction in liver fibrosis at sc administration for 6 weeks from period of week 7 to 12 during high-fat diet treatment by picrosirius red staining based analysis; assay type: functional, organism-based
[36] = Drug concentration in choline-deficient high-fat diet induced Wistar-Han rat plasma at sc administration for 6 weeks from period of week 7 to 12 during high-fat diet treatment; assay type: ADME, organism-based; conditions: in vivo, 1008 h
[37] = Drug concentration in choline-deficient high-fat diet induced Wistar-Han rat liver at sc administration for 6 weeks from period of week 7 to 12 during high-fat diet treatment; assay type: ADME, organism-based; conditions: in vivo, 1008 h

T5 sequence (P05556 21-798 limits assumed): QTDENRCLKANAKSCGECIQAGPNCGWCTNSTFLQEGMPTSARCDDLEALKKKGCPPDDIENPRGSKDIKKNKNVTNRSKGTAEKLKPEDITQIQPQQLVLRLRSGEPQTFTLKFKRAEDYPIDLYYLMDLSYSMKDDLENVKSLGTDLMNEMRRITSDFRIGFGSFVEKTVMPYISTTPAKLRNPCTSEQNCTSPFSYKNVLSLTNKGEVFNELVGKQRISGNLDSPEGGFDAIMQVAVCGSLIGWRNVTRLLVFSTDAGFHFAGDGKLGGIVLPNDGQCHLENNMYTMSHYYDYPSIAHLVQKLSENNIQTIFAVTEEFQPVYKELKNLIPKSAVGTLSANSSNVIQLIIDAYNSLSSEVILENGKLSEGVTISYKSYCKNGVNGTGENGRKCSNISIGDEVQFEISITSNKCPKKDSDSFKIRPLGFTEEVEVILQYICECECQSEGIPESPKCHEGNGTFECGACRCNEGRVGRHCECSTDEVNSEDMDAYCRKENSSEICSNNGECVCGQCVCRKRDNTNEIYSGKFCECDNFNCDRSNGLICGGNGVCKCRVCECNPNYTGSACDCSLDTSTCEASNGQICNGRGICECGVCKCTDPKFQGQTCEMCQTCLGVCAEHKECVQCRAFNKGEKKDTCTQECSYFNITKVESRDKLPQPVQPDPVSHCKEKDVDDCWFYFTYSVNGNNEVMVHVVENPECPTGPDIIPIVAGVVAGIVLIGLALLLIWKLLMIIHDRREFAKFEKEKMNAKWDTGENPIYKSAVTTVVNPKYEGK
T5 sequence (P08648 42-894 limits assumed): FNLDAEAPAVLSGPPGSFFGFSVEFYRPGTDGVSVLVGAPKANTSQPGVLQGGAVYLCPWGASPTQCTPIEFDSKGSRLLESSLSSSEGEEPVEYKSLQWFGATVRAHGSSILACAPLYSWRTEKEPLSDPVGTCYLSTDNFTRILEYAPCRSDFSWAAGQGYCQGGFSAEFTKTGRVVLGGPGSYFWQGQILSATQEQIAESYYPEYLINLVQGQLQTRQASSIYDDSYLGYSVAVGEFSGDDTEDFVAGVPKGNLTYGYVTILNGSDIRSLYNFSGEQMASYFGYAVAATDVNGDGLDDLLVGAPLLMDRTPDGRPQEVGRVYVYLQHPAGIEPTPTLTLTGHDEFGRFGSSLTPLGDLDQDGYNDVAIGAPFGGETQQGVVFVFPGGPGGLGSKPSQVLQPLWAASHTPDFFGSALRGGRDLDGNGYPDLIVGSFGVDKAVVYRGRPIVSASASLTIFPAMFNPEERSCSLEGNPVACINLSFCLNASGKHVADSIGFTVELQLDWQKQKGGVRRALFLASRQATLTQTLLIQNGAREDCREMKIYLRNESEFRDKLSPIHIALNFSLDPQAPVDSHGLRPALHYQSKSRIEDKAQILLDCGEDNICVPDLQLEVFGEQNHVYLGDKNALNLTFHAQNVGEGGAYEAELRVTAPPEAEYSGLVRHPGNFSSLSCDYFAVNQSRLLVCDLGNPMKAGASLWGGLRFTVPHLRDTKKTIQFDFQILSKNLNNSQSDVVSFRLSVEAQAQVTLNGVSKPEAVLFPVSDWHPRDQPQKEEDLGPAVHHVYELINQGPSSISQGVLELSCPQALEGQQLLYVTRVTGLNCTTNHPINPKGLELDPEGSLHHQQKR
T5 sequence (P08648 895-1049 limits assumed): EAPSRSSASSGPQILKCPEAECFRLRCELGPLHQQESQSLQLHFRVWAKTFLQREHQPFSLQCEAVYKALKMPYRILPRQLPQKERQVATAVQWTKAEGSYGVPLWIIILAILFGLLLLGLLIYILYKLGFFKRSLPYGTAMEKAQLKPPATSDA
T1 sequence (P05556 21-798 limits assumed): as the sequence (P05556 21-798 limits assumed) above
T1 sequence (P06756 31-889 limits assumed): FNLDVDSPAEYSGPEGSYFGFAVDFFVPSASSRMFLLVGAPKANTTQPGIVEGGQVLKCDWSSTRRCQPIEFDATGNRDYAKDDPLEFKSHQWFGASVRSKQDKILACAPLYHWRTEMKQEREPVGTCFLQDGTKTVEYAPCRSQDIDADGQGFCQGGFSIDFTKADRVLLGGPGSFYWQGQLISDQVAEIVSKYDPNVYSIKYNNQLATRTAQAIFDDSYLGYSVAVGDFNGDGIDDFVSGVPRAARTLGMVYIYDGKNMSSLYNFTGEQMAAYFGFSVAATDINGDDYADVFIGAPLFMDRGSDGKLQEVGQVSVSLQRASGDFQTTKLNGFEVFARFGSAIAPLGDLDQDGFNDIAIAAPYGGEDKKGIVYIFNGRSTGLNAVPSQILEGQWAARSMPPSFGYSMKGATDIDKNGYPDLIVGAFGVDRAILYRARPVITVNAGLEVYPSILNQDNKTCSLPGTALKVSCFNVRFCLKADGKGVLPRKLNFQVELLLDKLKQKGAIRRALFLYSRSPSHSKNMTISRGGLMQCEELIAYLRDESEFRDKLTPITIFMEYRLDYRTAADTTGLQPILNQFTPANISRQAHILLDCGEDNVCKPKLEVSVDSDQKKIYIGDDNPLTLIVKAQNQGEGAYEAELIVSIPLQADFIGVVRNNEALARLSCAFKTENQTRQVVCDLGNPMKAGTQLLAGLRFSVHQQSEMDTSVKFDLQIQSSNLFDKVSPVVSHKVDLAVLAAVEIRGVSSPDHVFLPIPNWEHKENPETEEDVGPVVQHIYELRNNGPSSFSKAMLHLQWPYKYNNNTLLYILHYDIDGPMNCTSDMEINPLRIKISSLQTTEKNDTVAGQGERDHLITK
T1 sequence (P06756 891-1048 limits assumed): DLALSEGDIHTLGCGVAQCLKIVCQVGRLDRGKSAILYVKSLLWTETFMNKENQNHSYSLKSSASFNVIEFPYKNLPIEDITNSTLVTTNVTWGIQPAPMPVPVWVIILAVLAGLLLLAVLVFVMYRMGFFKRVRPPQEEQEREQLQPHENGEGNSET
T6 sequence (P05556 whole entry): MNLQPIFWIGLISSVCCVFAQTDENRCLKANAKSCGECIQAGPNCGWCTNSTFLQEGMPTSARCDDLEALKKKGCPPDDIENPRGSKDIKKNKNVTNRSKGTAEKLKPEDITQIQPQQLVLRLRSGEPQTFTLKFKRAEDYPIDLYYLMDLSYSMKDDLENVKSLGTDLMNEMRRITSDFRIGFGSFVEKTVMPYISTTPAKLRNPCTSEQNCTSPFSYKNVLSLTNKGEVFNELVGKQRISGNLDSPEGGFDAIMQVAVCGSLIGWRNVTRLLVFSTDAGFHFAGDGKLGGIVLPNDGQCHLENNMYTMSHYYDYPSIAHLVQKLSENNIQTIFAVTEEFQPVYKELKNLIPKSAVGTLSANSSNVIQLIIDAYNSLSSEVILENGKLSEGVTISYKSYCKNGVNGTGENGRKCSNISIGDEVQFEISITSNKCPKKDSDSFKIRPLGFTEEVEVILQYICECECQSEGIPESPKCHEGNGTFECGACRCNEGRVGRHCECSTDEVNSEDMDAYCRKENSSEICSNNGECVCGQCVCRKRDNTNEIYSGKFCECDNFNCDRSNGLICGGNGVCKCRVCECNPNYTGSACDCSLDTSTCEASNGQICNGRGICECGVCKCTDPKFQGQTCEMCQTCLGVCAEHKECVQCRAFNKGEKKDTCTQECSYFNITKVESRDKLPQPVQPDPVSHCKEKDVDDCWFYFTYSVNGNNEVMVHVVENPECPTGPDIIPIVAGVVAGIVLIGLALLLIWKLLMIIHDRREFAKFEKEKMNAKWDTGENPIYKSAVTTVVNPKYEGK
T6 sequence (P13612 whole entry): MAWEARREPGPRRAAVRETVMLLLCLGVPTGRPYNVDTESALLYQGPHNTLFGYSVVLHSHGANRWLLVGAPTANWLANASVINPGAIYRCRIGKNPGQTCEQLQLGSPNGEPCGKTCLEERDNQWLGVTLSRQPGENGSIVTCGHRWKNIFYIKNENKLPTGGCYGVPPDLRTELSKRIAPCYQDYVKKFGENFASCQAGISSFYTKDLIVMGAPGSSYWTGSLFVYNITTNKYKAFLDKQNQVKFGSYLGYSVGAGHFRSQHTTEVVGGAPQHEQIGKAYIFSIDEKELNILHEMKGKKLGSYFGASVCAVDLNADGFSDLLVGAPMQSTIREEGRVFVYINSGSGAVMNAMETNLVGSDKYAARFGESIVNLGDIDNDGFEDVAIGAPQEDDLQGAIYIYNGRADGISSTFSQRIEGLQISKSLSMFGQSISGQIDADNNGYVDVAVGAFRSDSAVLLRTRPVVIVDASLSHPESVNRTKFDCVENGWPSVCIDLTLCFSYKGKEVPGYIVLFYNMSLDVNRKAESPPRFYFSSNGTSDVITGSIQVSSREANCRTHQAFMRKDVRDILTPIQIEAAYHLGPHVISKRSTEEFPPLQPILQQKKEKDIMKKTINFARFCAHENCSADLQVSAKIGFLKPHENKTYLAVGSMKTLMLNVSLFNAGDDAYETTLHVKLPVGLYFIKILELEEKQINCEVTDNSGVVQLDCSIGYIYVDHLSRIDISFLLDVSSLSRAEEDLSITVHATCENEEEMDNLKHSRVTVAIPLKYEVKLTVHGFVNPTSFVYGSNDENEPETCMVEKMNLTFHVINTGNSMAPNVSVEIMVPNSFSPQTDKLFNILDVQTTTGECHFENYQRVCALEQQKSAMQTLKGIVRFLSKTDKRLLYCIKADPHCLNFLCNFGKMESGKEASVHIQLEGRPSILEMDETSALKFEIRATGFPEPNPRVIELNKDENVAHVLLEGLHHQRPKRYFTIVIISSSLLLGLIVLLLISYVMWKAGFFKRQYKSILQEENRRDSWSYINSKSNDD

Cc1nc2ccccc2n1CC(=O)NC[C@H](NC(=O)c1ccccc1Cl)C(=O)O
IC50 [1]: > 10 µM

O=C(CN1C(=O)NCc2ccccc21)NC[C@H](NC(=O)c1ccccc1Cl)C(=O)O
IC50 [1]: 0.316 µM

O=C(NC(Cc1ccccc1)C(=O)O)c1ccc(Cl)cc1Cl (stereo unspecified)
IC50 [1]: 5.01 µM
IC50 [2]: > 31.6 µM
IC50 [3]: > 31.6 µM
IC50 [4]: > 31.6 µM
IC50 [5]: > 31.6 µM
IC50 [6]: > 31.6 µM

O=C(NC(CNc1ccc(N2CCNC2=O)cc1)C(=O)O)c1c(Cl)cccc1Cl (racemic)
IC50 [1]: 0.2 µM
IC50 [2]: 3.98 µM
IC50 [3]: 1.26 µM
IC50 [4]: > 10 µM
IC50 [5]: 7.94 µM
IC50 [7]: 0.2 µM
IC50 [6]: 0.631 µM

N=C(N)NCCCCC(=O)Nc1ccc(C[C@H](NC(=O)[C@@H]2CCCN2S(=O)(=O)c2ccccc2)C(=O)O)cc1
IC50 [8]: 0.0126 µM
IC50 [9]: 0.0347 µM
IC50 [10]: 1 µM
IC50 [11]: 5.89 µM
IC50 [12]: > 10 µM
IC50 [13]: 0.01 µM
IC50 [14]: 0.316 µM
IC50 [15]: 1.74 µM

Cc1cc(C#N)cc(C)c1C(=O)N[C@@H](CNC(=O)Cn1c(=O)[nH]c2ncccc21)C(=O)O
IC50 [1]: 0.01 µM
IC50 [2]: > 10 µM
IC50 [3]: > 10 µM
IC50 [4]: > 10 µM
IC50 [5]: > 10 µM
IC50 [7]: 5.01 µM
IC50 [6]: 2.51 µM

Cc1ccc(Cl)c(C(=O)N[C@@H](CNC(=O)Cn2c(=O)[nH]c3nc(C)c(F)cc32)C(=O)O)c1F
IC50 [1]: 0.000316 µM
Papp A→B at 1 h [16]: 3 ×10⁻⁶ cm/s
Papp B→A at 1 h [17]: 3.2 ×10⁻⁶ cm/s
IC50 [8]: 0.427 µM
IC50 [9]: > 31.6 µM
IC50 [10]: > 31.6 µM
IC50 [11]: > 31.6 µM
IC50 [12]: > 10 µM
IC50 [13]: 0.0437 µM
IC50 [14]: > 10 µM
IC50 [15]: 9.55 µM
half-life [18]: 3.32 h
clearance [19]: 0.38 mL/min/kg
AUC(0-t) [20]: 44000 ng·h/mL
AUC(0-inf) [21]: 44000 ng·h/mL
Vd [22]: 0.087 L/kg
half-life [23]: 3.3 h
Tmax [24]: 4.7 h
Cmax [25]: 66000 ng/mL
AUC(0-t) [26]: 630000 ng·h/mL
AUC(0-inf) [27]: 630000 ng·h/mL
bioavailability [28]: 59%
half-life [29]: 5.2 h
Tmax [30]: 2.8 h
Cmax [31]: 390 ng/mL
AUC(0-t) [32]: 4500 ng·h/mL
AUC(0-inf) [33]: 4800 ng·h/mL
bioavailability [34]: 1.3%
Activity [35]: Dose-Dependent Effect
Drug uptake [36]: Dose-Dependent Effect
Drug uptake [37]: Dose-Dependent Effect
